Data taken from ChEMBL document CHEMBL1129821, “Synthesis and biological evaluation of non-polyene analogs of amphotericin B” (1997).
In brackets after ≈: the same amount, converted by molar mass.

How the values were obtained:
Candida albicans = test: Minimum inhibitory concentration required for antifungal activity against Candida albicans(16820); assay type: functional
Cryptococcus neoformans = test: Minimum inhibitory concentration required for antifungal activity against Cryptococcus neoformans (271A); assay type: functional

Q: For COC(=O)[C@H]1[C@@H]2C[C@@H](O[C@@H]3O[C@H](C)[C@@H](O)[C@H](N)[C@@H]3O)/C=C/C=C/C=C/C=C/C=C/C=C/C=C/[C@H](C)[C@@H](O)[C@@H](C)[C@H](C)OC(=O)C[C@H](O)C[C@H](O)CC[C@@H](O)[C@H](O)C[C@H](O)C[C@](O)(C[C@@H]1O)O2 [AMPHOTERICIN B ME ESTER], which MIC (Candida albicans) is on record?
A: Its MIC is 8000 µg/mL (≈ 8.53 mM).

Q: What about the MIC (Cryptococcus neoformans) of the same compound?
A: The MIC was 8000 µg/mL (≈ 8.53 mM).
